Measured values reported in patent publication US10138292B2, “Cell culture medium” (BIOLAMINA AB, priority 2010, dated 2018).

Columns and labels:
human ES cells = experiment: Cell adhesion / single cell survival 1 day after plating (Example 1); type: cell-based; settings: for adhesion at 1 day compared with dishes including the ROCK inhibitor: coating without additives
Procedure: Ninety-six-well tissue cell culture plates were coated overnight at 4° C. with sterile solutions of the ECM proteins mouse LN-111 (Invitrogen), human recombinant LN-511, and human recombinant LN-521, all at a concentration of 30 μg/ml (5 μg/cm^2). For control cells, BD Matrigel™ hESC qualified (BD Biosciences) was used according to the manufacturer's instructions.
The assay was performed as described (Extracellular Matrix Protocols, 2000). Briefly, 96-well plates were coated by extracellular matrix proteins as described above and blocked by O3 medium containing bovine serum albumin. The ES cells were plated at a cell density of 600 cell/mm^2 upon extracellular matrix-coated plates and were left to adhere for either 1 hour or 1 day at the cell incubator. Non-adherent cells were washed away, and adherent cells were fixed for 20 min by 5% glutaraldehyde, stained by 0.1% Crystal Violet.

OCT4 = experiment: FACS analysis for OCT4; type: cell-based, human; settings: after several single cell suspension passages, O3 medium
Procedure: OCT4 expression was analyzed as described in Ludwig, T. E. et al. Derivation of human embryonic stem cells in defined conditions. Nat. Biotechnol. 24, 185-187 (2006). Cells were run on FACSCalibur Flow Cytometer (Becton Dickinson). Data were analyzed with CellQuest software (Becton Dickinson).

hES cells [1] = experiment: Cell survival assay, 24 hours (Example 2); type: cell-based, human
Procedure: The survival assay was performed as described for the cell adhesion assay above, except that the cells were left in the cell incubator for 24 hours. For inhibition of survival assay, the cells were kept in a medium with function blocking antibodies at the concentrations recommended by the manufacturer or pathway inhibitors at concentrations indicated in the text for 30 minutes, and then plated on the coated dishes. All the experiments were performed in quadruplicate.
Pluripotent hES cells express α1, α5, β1, β2 and γ1 laminin chains. To compare the adhesion and clonal survival of hES cells plated from single cell suspension to different coating substrata, hES cells growing as monolayers on LN-511 or as clusters on a feeder layer were trypsinized into single cell suspension in O3 medium and plated on cell culture dishes coated with Matrigel, LN-111, LN-511, LN-521 or a mixture of LN-511 and LN-521, in the absence or presence of a ROCK inhibitor (Y-27632) and analyzed after 24 hours.

[2] = test system: Oct4, Nanog, SSEA4, PAX6, SOX17, SOX7; experiment: Expression of pluripotency and differentiation markers (immunofluorescence, RT-PCR, FACS); type: cell-based, human; settings: similar to cells on Matrigel passed as small clumps
Procedure: For immunofluorescence studies, ES cells were cultured and fixed in 8-well slide chambers (BD Biosciences) or 96-well plate wells by 4% paraformaldehyde, permeabilized by 0.1% Triton-X and blocked by 10% bovine fetal serum (GIBCO Invitrogen Corporation) in phosphate-saline buffer (PBS) containing 0.1% Tween-20 (Sigma-Aldrich, St. Louis, http://www.sigmaaldrich.com) for one hour. Incubation with primary antibody was performed for 1.5 hours at room temperature. Incubation with secondary antibody and 4,6-diamidino-2-phenylindole (DAPI, Molecular Probes) was performed for 40 minutes. Between incubations, the specimens were washed with 0.1% Tween-20 in PBS buffer three to five times. Specimens were preserved in a fluorescence mounting medium (Dako, Glostrup, Denmark, http://www.dako.com), and observed under a fluorescence microscope (Leica, Heerbrugg, Switzerland, http://www.leica.com).
Total RNA was isolated using Absolutely RNA Microprep Kit (Stratagene, La Jolla Calif., www.stratagene.com) according to the manufacturer's instructions. cDNA was synthesized using 0.2 μg of total RNA in 20 μl reaction mixture, containing oligo(dT)12-18 primers and Superscript II reverse transcriptase (GIBCO Invitrogen Corporation), according to the manufacturer's instructions. […] All data was analyzed with 7300 System SDS Software v 1.4. […]

hES cells [3] = experiment: In vivo imaging and migration assay; type: cell-based, human
Procedure: 24-well plates were coated by extracellular matrix proteins and blocked by O3 medium containing bovine serum albumin. The ES cells were plated at cell density of 30,000-40,000 cells/cm^2 onto extracellular matrix-coated plates and left to adhere for half an hour in a cell incubator. After that, the plate was transferred into high content imaging system Operetta (PerkinElmer) equipped with environmental control unit, which allowed to keep 37° C., 5% CO2. For two movies that were made, the brightfield images were taken once in 15 minutes during 24 hours after plating using Harmony software (PerkinElmer), exported, and analyzed using ImageJ software (NIH, the US). For migration assay the images were taken every seven minutes during 18 hours after plating. Images acquired between the fifth and seventh hours after plating were analyzed using MTrackJ plug-in (University Medical Center, Rotterdam, The Netherlands). 100 attached cells on each coating were traced and mean distances from the current to the previous point of the track were calculated. Error bars show standard error of the mean s.e.m. (n=100).

## LN-521: protein formed by joining α5, β2 and γ1 laminin chains; human recombinant, produced in HEK293 cells
Human ES cells
  adhesion at 1 day compared with dishes including the ROCK inhibitor: similar
Human ES cells; listed as LN-532
  adhesion at 1 day compared with dishes including the ROCK inhibitor: no ROCK inhibitor is necessary
Human ES cells; completely dissociated H5181 cells, O3 medium without any additives, no ROCK inhibitor
  cells remaining attached / surviving 24 hours after plating: survived
Human ES cells; without additives
  adhesion at 1 day relative to Matrigel without additives: 20 times
OCT4
  percentage of Oct4 positive (pluripotent) cells compared with Matrigel: much higher percentage
hES cells [1]; 10 μM of Y-27632, 40,000 cells per 1 cm^2
  survival of Y-27632 treated cells compared with Matrigel: survived better
hES cells [1]; 24 hours, absence of ROCK inhibitor
  survival compared with LN-511: significantly higher
hES cells [1]; dissociated hES cells
  survival after 24 hours relative to Matrigel: approximately 20 times
hES cells [1]; exogenous bFGF removed from the O3 medium
  survival relative to Matrigel: 20 times
hES cells [1]; medium lacking bFGF, LiCl, GABA, pipecolic acid and TGFβ
  survival 24 hours after plating: survived
hES cells [1]; single cell suspension, O3 medium, absence of ROCK inhibitor
  survival 24 hours after plating: did so as single cells
[2]
  expression of pluripotency markers Oct4, Nanog, and SSEA4: stable expression levels
hES cells [3]; between the fifth and seventh hours after plating
  motility of hES cells compared with other coatings: higher
hES cells [3]; in vivo imaging
  migration of cells compared with Matrigel (imaging): much faster
